14 compounds from PubChem BioAssay AID248 (DTP/NCI, 2004) can be followed below.

Values joined by “and” are separate entries in the source; they are usually repeats but may differ in a detail not shown here. Equal entries are not always repeated. Inconclusive results and toxic doses are left out. Bridge positions count the residues as written; N and C are the ends. Square brackets hold non-standard residues; d marks the D form. Peptide text beside a SMILES is read from it. NMeV = CN[CH](C(=O)O)C(C)C; Sar = CNCC(=O)O

In this assay the test system is L1210 leukemia ip in BDF1 mice, survival T/C. Put plainly: NCI In Vivo Anticancer Drug Screen. Data for tumor model L1210 Leukemia (intraperitoneal) in B6D2F1 (BDF1) mice. As to conditions: endpoint: mean survival time, higher = longer survival. In outline: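 Tumor cells were implanted, animals were treated, and survival was followed. The result divides the treated measurement by the vehicle-control measurement.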

Where [1] appears, read: dose: 100.0 mg/kg/injection, schedule: Q01DX001 (ip), vehicle: saline with Tween-80.
Setting [2] is: dose: 200.0 mg/kg/injection, schedule: Q01DX001 (ip), vehicle: saline with Tween-80.
[3] abbreviates: dose: 400.0 mg/kg/injection, schedule: Q01DX001 (ip), vehicle: saline with Tween-80.
[4] abbreviates: dose: 50.0 mg/kg/injection, schedule: Q01DX009 (ip), vehicle: saline.
[5] abbreviates: dose: 100.0 mg/kg/injection, schedule: Q04DX003 (ip), vehicle: saline.
Setting [6] is: dose: 100.0 mg/kg/injection, schedule: Q01DX009 (ip), vehicle: Klucel (hydroxypropylcellulose) (HPC).
[7] abbreviates: dose: 200.0 mg/kg/injection, schedule: Q01DX009 (ip), vehicle: Klucel (hydroxypropylcellulose) (HPC).
Setting [8] is: dose: 400.0 mg/kg/injection, schedule: Q01DX009 (ip), vehicle: Klucel (hydroxypropylcellulose) (HPC).
Setting [9] is: dose: 100.0 mg/kg/injection, schedule: Q01DX001 (ip), vehicle: saline.
Where [10] appears, read: dose: 200.0 mg/kg/injection, schedule: Q01DX001 (ip), vehicle: saline.
The mark [11] stands for this setting: dose: 400.0 mg/kg/injection, schedule: Q01DX001 (ip), vehicle: saline.
Where [12] appears, read: dose: 100.0 mg/kg/injection, schedule: Q04DX003 (ip), vehicle: Klucel (hydroxypropylcellulose) (HPC).
Where [13] appears, read: dose: 200.0 mg/kg/injection, schedule: Q04DX003 (ip), vehicle: Klucel (hydroxypropylcellulose) (HPC).
[14] abbreviates: dose: 400.0 mg/kg/injection, schedule: Q04DX003 (ip), vehicle: Klucel (hydroxypropylcellulose) (HPC).

With `Fc1c(F)c(F)c(Oc2c(F)c(F)c(Br)c(F)c2F)c(F)c1F`, the T/C runs as follows: under setting [1], 88 % of control; under setting [2], 88 % of control; under setting [3], 88 % of control.

Take `CN=C(NC)c1ccc(NC(=O)CCc2ccc(C(=O)Nc3ccc(C(=NC)NC)cc3)cc2)cc1`: the T/C by setting is: (dose: 0.75 mg/kg/injection, schedule: Q01DX Z (ip), vehicle: carboxymethylcellulose (CMC)) 94 % of control; (dose: 1.5 mg/kg/injection, schedule: Q01DX Z (ip), vehicle: carboxymethylcellulose (CMC)) 90 % of control; (dose: 3.0 mg/kg/injection, schedule: Q01DX Z (ip), vehicle: carboxymethylcellulose (CMC)) 93 % of control; (dose: 6.0 mg/kg/injection, schedule: Q01DX Z (ip), vehicle: carboxymethylcellulose (CMC)) 113 % of control; (dose: 10.5 mg/kg/injection, schedule: Q01DX Z (ip), vehicle: carboxymethylcellulose (CMC)) 168 % of control; (dose: 50.0 mg/kg/injection, schedule: Q01DX Z (oral), vehicle: carboxymethylcellulose (CMC)) 101 % of control. For the same compound, the T/C was 105 % of control (dose: 100.0 mg/kg/injection, schedule: Q01DX Z (oral), vehicle: carboxymethylcellulose (CMC)); 103 % of control (dose: 200.0 mg/kg/injection, schedule: Q01DX Z (oral), vehicle: carboxymethylcellulose (CMC)); 94 % of control (dose: 400.0 mg/kg/injection, schedule: Q01DX Z (oral), vehicle: carboxymethylcellulose (CMC)).

With `Nc1ccc(NS(=O)(=O)Cc2ccccc2)cc1`, the T/C is, setting by setting: under setting [1], 98 % of control; under setting [2], 96 % of control; under setting [3], 107 % of control.

Turning to `O=C(/C=C/c1ccccc1)NC(=S)Nc1nccs1`, the T/C is, setting by setting: (dose: 100.0 mg/kg/injection, schedule: Q01DX009 (ip), vehicle: carboxymethylcellulose (CMC)) 100 % of control and 104 % of control; (dose: 100.0 mg/kg/injection, schedule: Q04DX002 (ip), vehicle: carboxymethylcellulose (CMC)) 97 % of control and 103 % of control; (dose: 100.0 mg/kg/injection, schedule: Q04DX003 (ip), vehicle: carboxymethylcellulose (CMC)) 100 % of control; (dose: 200.0 mg/kg/injection, schedule: Q01DX009 (ip), vehicle: carboxymethylcellulose (CMC)) 100 % of control and 111 % of control; (dose: 200.0 mg/kg/injection, schedule: Q04DX002 (ip), vehicle: carboxymethylcellulose (CMC)) 99 % of control and 103 % of control; (dose: 200.0 mg/kg/injection, schedule: Q04DX003 (ip), vehicle: carboxymethylcellulose (CMC)) 96 % of control. Moreover, the T/C runs as follows: (dose: 400.0 mg/kg/injection, schedule: Q01DX009 (ip), vehicle: carboxymethylcellulose (CMC)) 96 % of control and 102 % of control; (dose: 400.0 mg/kg/injection, schedule: Q04DX002 (ip), vehicle: carboxymethylcellulose (CMC)) 103 % of control and 87 % of control; (dose: 400.0 mg/kg/injection, schedule: Q04DX003 (ip), vehicle: carboxymethylcellulose (CMC)) 93 % of control.

Turning to `NC(=O)NN=C1COC(c2ccccc2)OC1` (stereo not given), the T/C reads like this: under setting [4], 98 % of control; (dose: 100.0 mg/kg/injection, schedule: Q01DX009 (ip), vehicle: saline) 89 % of control; under setting [5], 101 % of control; (dose: 200.0 mg/kg/injection, schedule: Q04DX003 (ip), vehicle: saline) 93 % of control.

Consider `Cc1ccc(NC(N)=O)cc1Cl`, for which the T/C runs as follows: under setting [6], 105 % of control; under setting [7], 107 % of control; under setting [8], 102 % of control.

As to `CC(C)C1NC(=O)C(N)C(C)OC(=O)C(C(C)C)N(C)C(=O)CN(C)C(=O)C2CCCN2C1=O` (stereo not given) (tested in a mixture with another compound) (H-TVP[Sar][NMeV]; ester 1-C; configuration not given here), the T/C was 103 % of control (dose: 0.1 mg/kg/injection, schedule: Q01DX001 (ip), vehicle: saline + alcohol); 107 % of control (dose: 0.2 mg/kg/injection, schedule: Q01DX001 (ip), vehicle: saline + alcohol); 124 % of control (dose: 0.4 mg/kg/injection, schedule: Q01DX001 (ip), vehicle: saline + alcohol); 122 % of control (dose: 0.8 mg/kg/injection, schedule: Q01DX001 (ip), vehicle: saline + alcohol); 95 % of control (dose: 15.6 micrograms/kg/injection, schedule: Q01DX009 (ip), vehicle: other); 106 % of control (dose: 25.0 micrograms/kg/injection, schedule: Q01DX009 (ip), vehicle: saline + alcohol). The T/C is 92 % of control (dose: 31.3 micrograms/kg/injection, schedule: Q01DX009 (ip), vehicle: other); 97 % of control (dose: 62.5 micrograms/kg/injection, schedule: Q01DX009 (ip), vehicle: other); 103 % of control (dose: 75.0 micrograms/kg/injection, schedule: Q04DX003 (ip), vehicle: saline + alcohol); 105 % of control (dose: 125.0 micrograms/kg/injection, schedule: Q01DX009 (ip), vehicle: other); 106 % of control (dose: 150.0 micrograms/kg/injection, schedule: Q04DX003 (ip), vehicle: saline + alcohol); 121 % of control (dose: 250.0 micrograms/kg/injection, schedule: Q01DX009 (ip), vehicle: other). For the same compound, the T/C (dose: 300.0 micrograms/kg/injection, schedule: Q04DX003 (ip), vehicle: saline + alcohol) is 121 % of control; the T/C (dose: 500.0 micrograms/kg/injection, schedule: Q01DX009 (ip), vehicle: other) was 103 % of control; the T/C (dose: 1200.0 micrograms/kg/injection, schedule: Q04DX003 (ip), vehicle: saline + alcohol) is 116 % of control.

Regarding `CC1C(=O)C=C2CCCC(C)(C)C2(C)C1(O)CCc1ccoc1` (stereo not given), the T/C by setting is: under setting [9], 103 % of control; under setting [10], 97 % of control; under setting [11], 107 % of control.

In the case of `CCOC(=O)NCc1ccccc1`, the T/C reads like this: under setting [6], 101 % of control; under setting [12], 98 % of control; under setting [7], 106 % of control; under setting [13], 95 % of control; under setting [8], 95 % of control; under setting [14], 101 % of control.

In the case of `CN(C)C1CC1c1ccccc1` (stereo not given), the T/C runs as follows: (dose: 6.25 mg/kg/injection, schedule: Q01DX009 (ip), vehicle: saline) 106 % of control; (dose: 12.5 mg/kg/injection, schedule: Q01DX009 (ip), vehicle: saline) 95 % of control; (dose: 25.0 mg/kg/injection, schedule: Q01DX009 (ip), vehicle: saline) 95 % of control; (dose: 25.0 mg/kg/injection, schedule: Q04DX003 (ip), vehicle: saline) 100 % of control; under setting [4], 106 % of control; (dose: 50.0 mg/kg/injection, schedule: Q04DX003 (ip), vehicle: saline) 100 % of control. In addition, the T/C under setting [5] is 100 % of control.

In the case of `OC1/C(=C/c2ccco2)CCC2CCCCC21` (stereo not given), the T/C (dose: 100.0 mg/kg/injection, schedule: Q01DX001 (ip), vehicle: Klucel (hydroxypropylcellulose) (HPC)) was 101 % of control; the T/C (dose: 200.0 mg/kg/injection, schedule: Q01DX001 (ip), vehicle: Klucel (hydroxypropylcellulose) (HPC)) is 98 % of control; the T/C (dose: 400.0 mg/kg/injection, schedule: Q01DX001 (ip), vehicle: Klucel (hydroxypropylcellulose) (HPC)) is 90 % of control.

In the case of `CCC1CCC(NC(=O)N(CCF)N=O)CC1` (stereo not given), the T/C runs as follows: (dose: 12.0 mg/kg/injection, schedule: Q01DX001 (ip), vehicle: other) 105 % of control; (dose: 18.0 mg/kg/injection, schedule: Q01DX001 (ip), vehicle: other) 114 % of control; (dose: 60.0 mg/kg/injection, schedule: Q01DX001 (ip), vehicle: other) 215 % of control; (dose: 93.0 mg/kg/injection, schedule: Q01DX001 (ip), vehicle: other) 223 % of control.

As for `O=C(O)C(c1cc(Cl)co1)N1C(=O)c2ccccc2C1=O` (stereo not given), the T/C is 103 % of control under setting [12], 101 % of control under setting [13] and 103 % of control under setting [14].

Turning to `O=C(O)c1cccc(S(=O)(=O)O)c1`, the T/C is, setting by setting: under setting [9], 105 % of control; under setting [10], 98 % of control; under setting [11], 102 % of control.
